Measurements: ChEMBL document CHEMBL1201862, “PubChem BioAssay data set” (2004)
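48-hour exposure; five concentrations; linearly interpolated endpoints. The concentration for 50% growth inhibition is given as GI50.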 Active and inactive are the calls of the source. Cut-off read from the data, not from the text of the source: active = GI50 up to about 1.1 µM and inactive = higher.

What was measured:
Assay in all cases: growth of human tumour cells (NCI), 48 h
SNB-75 = system: SNB-75
HCC 2998 = system: HCC 2998
HT-29 = system: HT-29
DMS-273 = system: DMS-273
HOP-18 = system: HOP-18
Malme-3M = system: Malme-3M
LXFL 529 = system: LXFL 529
XF498 = system: XF498
DLD-1 = system: DLD-1
HL-60 = system: HL-60
M19-MEL = system: M19-MEL
DMS-114 = system: DMS-114
A549 = system: A549
KM-20L2 = system: KM-20L2
RPMI-8226 = system: RPMI-8226
786-0 = system: 786-0
SK-MEL-2 = system: SK-MEL-2
SK-OV-3 = system: SK-OV-3
COLO 205 = system: COLO 205
K562 = system: K562
SN12C = system: SN12C
KM12 = system: KM12
M14 = system: M14
A498 = system: A498
IGROV-1 = system: IGROV-1
HCT-116 = system: HCT-116
U-251 = system: U-251
HCT-15 = system: HCT-15
HOP-62 = system: HOP-62
SF-295 = system: SF-295
SW-620 = system: SW-620
OVCAR-8 = system: OVCAR-8
RXF 393 = system: RXF 393
NCI-H460 = system: NCI-H460
SNB-78 = system: SNB-78
UACC-257 = system: UACC-257
SK-MEL-28 = system: SK-MEL-28
SNB-19 = system: SNB-19
NCI-H522 = system: NCI-H522
TK-10 = system: TK-10
MOLT-4 = system: MOLT-4
UO-31 = system: UO-31
SF-539 = system: SF-539
ACHN = system: ACHN
NCI-H23 = system: NCI-H23
EKVX = system: EKVX
SF-268 = system: SF-268
RXF 631 = system: RXF 631
OVCAR-4 = system: OVCAR-4
OVCAR-3 = system: OVCAR-3
UACC-62 = system: UACC-62
CAKI-1 = system: CAKI-1
SK-MEL-5 = system: SK-MEL-5
CCRF-CEM = system: CCRF-CEM

Measured: GI50

O/N=C1/C(=C/c2ccc(F)cc2)CCCC1C(NO)c1ccc(F)cc1 (centres undefined)
inactive: SNB-75 50.1 µM | HCC 2998 35.6 µM | HT-29 21.6 µM | DMS-273 40.6 µM | HOP-18 21.1 µM | Malme-3M 26.7 µM | LXFL 529 38.4 µM | XF498 64 µM | DLD-1 65.2 µM | HL-60 25.1 µM | M19-MEL 38.3 µM | DMS-114 29.9 µM | A549 32.9 µM | KM-20L2 28.8 µM | RPMI-8226 20.8 µM | 786-0 76.2 µM | SK-MEL-2 34.6 µM | SK-OV-3 > 100 µM | COLO 205 33.5 µM | K562 29.1 µM | SN12C 20.8 µM | KM12 22.3 µM | M14 32.8 µM | A498 > 100 µM | IGROV-1 89.1 µM | HCT-116 30 µM | U-251 46.8 µM | HOP-62 > 100 µM | SF-295 41 µM | SW-620 51.9 µM | OVCAR-8 35.8 µM | RXF 393 21.3 µM | NCI-H460 > 100 µM | SNB-78 67 µM | UACC-257 25.4 µM | SK-MEL-28 25.8 µM | SNB-19 52.4 µM | NCI-H522 17.5 µM | TK-10 71.4 µM | MOLT-4 22.3 µM | UO-31 25.6 µM | SF-539 42.2 µM | ACHN > 100 µM | NCI-H23 16.6 µM | EKVX 38.9 µM | SF-268 23.2 µM | RXF 631 33 µM | OVCAR-4 31.5 µM | OVCAR-3 23.7 µM | UACC-62 34.4 µM | CAKI-1 62.7 µM | SK-MEL-5 19 µM | CCRF-CEM 33.2 µM
38 µM: HCT-15
